Test results from publication PMC4507497 (Chemistry & biology, 2015).
“And” between values parts separate entries of the source, which are not always exact repeats. Identical values can stand only once. No end group written: not given here.

Assays:
Frog MOR (rpMOR) = Frog MOR (rpMOR) (Lithobates pipiens, UniProt Q7T069); test: cell-based; design: species or system Rana pipiens
Frog DOR = format: cell-based, Rana pipiens; conditions: Table 2, HEK 293T cells; for EC50: NA = not active
[1] = molecular target: h-rpMOR-E2h (h-rpMOR EL2h); test: Competition binding with radiolabeled diprenorphine, h-rpMOR-E2h; design: species or system human / Rana pipiens; conditions: Table 3, [3H]-diprenorphine competition
[2] = system: h-rpMOR-E3h (h-rpMOR-EL3h); test: Inhibition of isoproterenol-stimulated cAMP response, chimera h-rpMOR-E3h; format: cell-based, human / Rana pipiens; conditions: for EC50 / log EC50 ±SEM: Table 3, h-rpMOR-E3h, HEK 293T cells
h-rpMOR-E3h = test: Competition binding with radiolabeled diprenorphine, h-rpMOR-E3h; design: species or system human / Rana pipiens; conditions: Table 3, [3H]-diprenorphine competition
Frog KOR = Frog KOR (Lithobates pipiens, UniProt B0JCV9); test: Inhibition of isoproterenol-induced cAMP production; format: cell-based, Rana pipiens
Chain of Frog KOR (B0JCV9 1-390): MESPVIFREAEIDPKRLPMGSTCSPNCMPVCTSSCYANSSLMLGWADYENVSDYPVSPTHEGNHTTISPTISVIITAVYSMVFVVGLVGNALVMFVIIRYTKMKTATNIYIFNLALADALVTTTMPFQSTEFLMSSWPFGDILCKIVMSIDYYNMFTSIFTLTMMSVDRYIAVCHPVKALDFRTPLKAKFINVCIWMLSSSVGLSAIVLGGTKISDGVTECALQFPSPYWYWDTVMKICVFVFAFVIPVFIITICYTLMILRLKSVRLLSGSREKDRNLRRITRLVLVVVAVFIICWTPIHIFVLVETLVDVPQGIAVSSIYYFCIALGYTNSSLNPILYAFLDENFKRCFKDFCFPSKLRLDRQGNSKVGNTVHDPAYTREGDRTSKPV

h-rpMOR-wt = test: Competition binding with radiolabeled diprenorphine, h-rpMOR-wt; design: species or system human / Rana pipiens; conditions: Table 3, [3H]-diprenorphine competition
rpMOR = test: Competition binding with radiolabeled diprenorphine, rpMOR; design: species or system Rana pipiens; conditions: Table 3, [3H]-diprenorphine competition
[3] = system: h-rpMOR-E2h (h-rpMOR-EL2h); test: Inhibition of isoproterenol-stimulated cAMP response, chimera h-rpMOR-E2h; format: cell-based, human / Rana pipiens; conditions: for EC50 / log EC50 ±SEM: Table 3, h-rpMOR-E2h, HEK 293T cells
[4] = system: h-rpMOR-wt (rpMOR with humanized N-terminus); test: Inhibition of isoproterenol-stimulated cAMP response, chimera h-rpMOR-wt; format: cell-based, human / Rana pipiens; conditions: Table 3, HEK 293T cells
three tested frog ORs = test: cAMP inhibition, the three tested frog ORs; format: cell-based, Rana pipiens; conditions: frog KOR, MOR, DOR; cAMP assay
[5] = system: ORs in the brains and spinal cord; conditions: Rana pipiens tissue; cited from earlier work
Human DOR [6] = molecular target: Human DOR (Homo sapiens, UniProt P41143); test: cell-based
Chain of Human DOR (P41143 whole entry): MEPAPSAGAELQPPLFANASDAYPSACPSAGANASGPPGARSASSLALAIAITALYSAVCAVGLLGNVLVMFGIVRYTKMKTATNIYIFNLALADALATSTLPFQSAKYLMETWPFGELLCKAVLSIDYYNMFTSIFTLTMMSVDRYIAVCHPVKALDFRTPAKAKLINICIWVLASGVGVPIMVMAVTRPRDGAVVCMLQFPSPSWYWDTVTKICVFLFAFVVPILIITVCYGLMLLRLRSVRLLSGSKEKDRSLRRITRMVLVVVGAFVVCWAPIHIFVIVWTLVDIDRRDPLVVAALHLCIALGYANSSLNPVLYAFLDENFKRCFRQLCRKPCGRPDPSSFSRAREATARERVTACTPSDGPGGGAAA

human DOR [7] = conditions: human (but not murine) DOR; cited from earlier work
Human KOR = Human KOR (Homo sapiens, UniProt P41145); test: cell-based
Chain of Human KOR (P41145 whole entry): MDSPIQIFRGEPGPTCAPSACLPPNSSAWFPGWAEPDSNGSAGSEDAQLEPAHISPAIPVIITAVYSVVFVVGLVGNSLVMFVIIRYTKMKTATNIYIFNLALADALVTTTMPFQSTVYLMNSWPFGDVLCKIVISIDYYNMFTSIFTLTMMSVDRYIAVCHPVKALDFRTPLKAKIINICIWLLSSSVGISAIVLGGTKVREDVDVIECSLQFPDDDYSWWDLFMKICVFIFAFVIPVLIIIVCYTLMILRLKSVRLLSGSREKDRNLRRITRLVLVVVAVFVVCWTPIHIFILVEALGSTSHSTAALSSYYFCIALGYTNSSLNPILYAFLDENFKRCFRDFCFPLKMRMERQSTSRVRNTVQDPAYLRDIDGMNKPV

[8] = system: rpDOR mutants Met287Leu, Asn294Asp and Tyr296Leu; test: Functional studies, rpDOR mutants Met287Leu, Asn294Asp and Tyr296Leu; format: cell-based, Rana pipiens; conditions: data not shown
human DOR (Leu300Trp) = test: Inhibition of cAMP response, hDOR Leu300Trp mutant; format: cell-based; conditions: hDOR Leu300Trp vs hDOR
rpDOR Trp301Leu (7.35) = test: Functional and binding studies, rpDOR mutant Trp301Leu; format: cell-based, Rana pipiens
[9] = relative to chimera with humanized N-terminus only

Chain of Frog MOR (rpMOR) (Q7T069 1-388): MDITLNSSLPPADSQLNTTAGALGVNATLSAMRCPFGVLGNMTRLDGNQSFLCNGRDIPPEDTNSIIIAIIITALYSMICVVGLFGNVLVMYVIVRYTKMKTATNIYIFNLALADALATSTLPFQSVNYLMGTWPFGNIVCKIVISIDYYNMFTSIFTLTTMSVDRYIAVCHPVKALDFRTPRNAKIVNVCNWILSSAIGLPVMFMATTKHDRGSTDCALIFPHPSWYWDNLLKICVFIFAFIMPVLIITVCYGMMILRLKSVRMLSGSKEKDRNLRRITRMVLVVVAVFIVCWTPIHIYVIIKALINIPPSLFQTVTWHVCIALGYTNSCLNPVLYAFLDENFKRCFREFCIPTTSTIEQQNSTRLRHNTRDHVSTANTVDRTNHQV

## CC(C)C[C@@H](NC(=O)[C@H](Cc1ccccc1)NC(=O)CNC(=O)[C@@H](C)NC(=O)[C@@H](N)Cc1ccc(O)cc1)C(=O)O [DADLE, [D-Ala^2,D-Leu^5]-enkephalin]
Frog MOR (rpMOR); EC50
  EC50: 480 nM
Frog MOR (rpMOR); log EC50 ±SEM
  EC50: 501 nM
Frog DOR
  log EC50 ±SEM: −6.5±0.06 logM
  EC50: 353 nM

## C[C@@H](NC(=O)[C@@H](N)Cc1ccc(O)cc1)C(=O)NCC(=O)N(C)[C@@H](Cc1ccccc1)C(=O)NCCO [DAMGO, [D-Ala^2,N-MePhe^4,Gly-ol]-enkephalin]
[1]
  Ki: 80 nM
Frog MOR (rpMOR); EC50
  EC50: 1500 nM and 1900 nM
Frog MOR (rpMOR); log EC50 ±SEM
  EC50: 1580 nM and 2000 nM
[2]
  EC50: 22 nM
  log EC50 ±SEM: −7.7 ± 0.07 M
h-rpMOR-E3h
  Ki: 120 nM
Frog KOR; EC50, Table 2, HEK 293T cells, NA = not active
  EC50: 2400 nM
Frog KOR; log EC50 ±SEM, Table 2, HEK 293T cells
  EC50: 2510 nM
h-rpMOR-wt
  Ki: 100 nM
rpMOR
  Ki: 160 nM
[3]
  EC50: 81 nM
  log EC50 ±SEM: −7.1 ± 0.07 M
[4]
  EC50: 96 nM
  log EC50 ±SEM: −7.0 ± 0.08 M

## CC(C)[C@H](NC(=O)[C@H](CC(=O)O)NC(=O)[C@H](Cc1ccccc1)NC(=O)[C@@H](C)NC(=O)[C@@H](N)Cc1ccc(O)cc1)C(=O)N[C@H](C(=O)NCC(N)=O)C(C)C [Deltorphin C, Tyr-D-Ala-Phe-Asp-Val-Val-Gly-NH2]
Three tested frog ORs
  agonist activity at the three tested frog ORs: inactive

## C[C@@H](NC(=O)[C@@H](N)Cc1ccc(O)cc1)C(=O)N[C@@H](Cc1ccccc1)C(=O)NCC(=O)N[C@@H](Cc1ccc(O)cc1)C(=O)N1CCC[C@H]1C(=O)N[C@@H](CO)C(N)=O [Dermorphin]
[1]
  Ki: 112 nM
[2]
  EC50: 130 nM
  log EC50 ±SEM: −6.9 ± 0.1 M
[2]; [9]
  enhancement of receptor activation by humanization of EL3: ~ 2 fold
rpMOR
  Ki: 1640 nM
[5]
  affinities to ORs in the brains and spinal cord: 30 to 80 µM
[3]
  EC50: 40 nM
  log EC50 ±SEM: −7.4 ± 0.07 M
[3]; [9]
  enhancement of receptor activation by humanization of EL2: ~ 10 fold
[4]
  EC50: 230 nM
  log EC50 ±SEM: −6.7 ± 0.08 M

## CC(C)C[C@H](NC(=O)[C@H](Cc1ccccc1)NC(=O)CNC(=O)CNC(=O)[C@@H](N)Cc1ccc(O)cc1)C(=O)N[C@@H](CCCN=C(N)N)C(=O)N[C@@H](CCCN=C(N)N)C(=O)N[C@@H](CCC(N)=O)C(=O)N[C@@H](Cc1ccccc1)C(=O)N[C@@H](CCCCN)C(=O)N[C@H](C(=O)N[C@H](C(=O)N[C@H](C(=O)O)[C@@H](C)O)C(C)C)C(C)C [Dynorphin B]
Frog MOR (rpMOR); EC50
  EC50: 5200 nM
Frog MOR (rpMOR); log EC50 ±SEM
  EC50: 5010 nM
Frog KOR; EC50
  EC50: 170 nM
Frog KOR; log EC50 ±SEM
  EC50: 158 nM
Human DOR [6]; EC50
  EC50: 360 nM
Human DOR [6]; log EC50 ±SEM
  EC50: 398 nM

## NC(=O)[C@H](Cc1ccccc1)NC(=O)[C@H](Cc1c[nH]c2ccccc12)NC(=O)[C@@H]1CCCN1C(=O)[C@@H](N)Cc1ccc(O)cc1 [Endomorphin 1]
Frog MOR (rpMOR); EC50
  EC50: 381 nM and 360 nM
Frog MOR (rpMOR); log EC50 ±SEM
  EC50: 398 nM and 316 nM
[3]
  EC50: 95 nM
[4]
  EC50: 43 nM
  log EC50 ±SEM: −7.4 ± 0.07 M

## NC(=O)[C@H](Cc1ccccc1)NC(=O)[C@H](Cc1ccccc1)NC(=O)[C@@H]1CCCN1C(=O)[C@@H](N)Cc1ccc(O)cc1 [Endomorphin 2]
Frog MOR (rpMOR); EC50
  EC50: 782 nM and 920 nM
Frog MOR (rpMOR); log EC50 ±SEM
  EC50: 794 nM and 1000 nM
[2]
  EC50: 32 nM
[3]
  EC50: 190 nM
  log EC50 ±SEM: −6.7 ± 0.32 M
[4]
  EC50: 93 nM

## DIPP-NH2
Human DOR [7]
  agonist activity: weak partial agonist activity

## YGGFIRKPDKYKFLNA [Xendorphin]
Frog KOR
  activity at frog and human KORs compared: equally active

## YGGFLRKYPK [α-Neoendorphin]
Frog DOR
  log EC50 ±SEM: −5.8±0.08 logM
  EC50: 1600 nM
Frog KOR
  fold less potent at the frog KOR: 10 fold
Frog KOR; EC50
  EC50: 78 nM
Frog KOR; log EC50 ±SEM
  EC50: 79.4 nM
Human DOR [6]; EC50
  EC50: 1600 nM
Human DOR [6]; log EC50 ±SEM
  EC50: 1580 nM
Human KOR; EC50
  EC50: 11 nM
Human KOR; log EC50 ±SEM
  EC50: 10 nM

## deltorphin
[8]
  response of the mutants: did not respond
Human DOR (Leu300Trp)
  decrease of potency by the L300W mutation: ~2000 fold
rpDOR Trp301Leu (7.35)
  response of the mutant compared to rpDOR: substantially increased potency and affinity
[5]
  affinities to ORs in the brains and spinal cord: 30 to 80 µM
